These results are taken from patent publication US20240066136A1, “MODIFIED PROTEINS AND PROTEIN DEGRADERS” (Cullgen (Shanghai), Inc., priority 2020, published 2024).

Human DDB1, sequence (Q16531 whole entry): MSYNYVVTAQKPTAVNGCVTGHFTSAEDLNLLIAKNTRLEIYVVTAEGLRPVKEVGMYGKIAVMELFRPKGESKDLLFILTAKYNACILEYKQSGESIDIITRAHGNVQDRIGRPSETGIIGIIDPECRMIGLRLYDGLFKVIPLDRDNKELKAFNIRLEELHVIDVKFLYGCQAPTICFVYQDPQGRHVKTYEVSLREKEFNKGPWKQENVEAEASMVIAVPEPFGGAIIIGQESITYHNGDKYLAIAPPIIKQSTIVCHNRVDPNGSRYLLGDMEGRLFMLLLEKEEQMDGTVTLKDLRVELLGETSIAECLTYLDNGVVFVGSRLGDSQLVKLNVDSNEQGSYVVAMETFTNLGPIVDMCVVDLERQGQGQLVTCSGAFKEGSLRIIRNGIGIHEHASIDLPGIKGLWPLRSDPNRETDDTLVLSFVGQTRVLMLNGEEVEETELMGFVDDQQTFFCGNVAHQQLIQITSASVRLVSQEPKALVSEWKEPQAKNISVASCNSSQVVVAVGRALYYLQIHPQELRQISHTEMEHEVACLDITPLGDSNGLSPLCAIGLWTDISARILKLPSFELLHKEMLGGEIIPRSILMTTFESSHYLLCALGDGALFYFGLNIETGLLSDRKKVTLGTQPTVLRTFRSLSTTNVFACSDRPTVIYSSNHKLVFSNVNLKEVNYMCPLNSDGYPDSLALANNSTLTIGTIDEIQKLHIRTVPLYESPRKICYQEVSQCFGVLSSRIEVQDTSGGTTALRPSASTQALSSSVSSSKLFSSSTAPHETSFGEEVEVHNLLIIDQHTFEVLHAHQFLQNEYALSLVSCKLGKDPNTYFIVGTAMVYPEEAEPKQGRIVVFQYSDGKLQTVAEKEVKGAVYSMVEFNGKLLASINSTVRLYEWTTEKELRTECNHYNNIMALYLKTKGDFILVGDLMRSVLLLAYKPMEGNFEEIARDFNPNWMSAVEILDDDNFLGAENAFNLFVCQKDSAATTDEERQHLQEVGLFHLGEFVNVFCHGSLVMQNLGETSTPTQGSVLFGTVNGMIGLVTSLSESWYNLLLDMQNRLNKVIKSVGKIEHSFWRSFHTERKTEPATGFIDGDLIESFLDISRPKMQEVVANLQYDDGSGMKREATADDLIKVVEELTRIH

The target in one assay is Human DDB1 (Homo sapiens (Human), UniProt Q16531). The assay is described as follows: Surface plasmon resonance (SPR) binding assay to immobilized His-DDB1. Particulars: SPR, DDB1 binding moieties with linkers and/or target protein binding moiety; read-out: Binding (Kd). On the procedure:
The binding affinities of heterobifunctional compounds to DDB1 were determined by SPR assay. Purified His-DDB1 proteins were immobilized on a CM5 sensor chip, and a dose range of compound solutions were injected in multi-cycle kinetic format. Data were fit to steady state model and gave equivalent dissociation constants (KD).
Protein Expression and Purification. Human DDB1 (UniPro: Q16531) coding sequences were cloned into pFastBacHTB vector and were expressed in High5 cells using Bac-to-Bac baculovirus expression system (Thermo Fisher Scientific). […] DDB1 proteins were obtained from supernatant of cell lysates and purified through sequential application of Ni affinity (Ni-NTA column. Bio-Rad), and size-exclusion (Superdex 200 16/600GL column, GE Healthcare) column chromatography.
Surface plasmon resonance (SPR) binding assay. All SPR studies were performed on a Biacore X100 plus or T200 instrument (GE Healthcare). Immobilization of purified His-DDB1 was carried out at 25° C. using a CM5 sensor chip. The surface was pre-equilibrated in HBS-EP running buffer (10 mM HEPES, pH7.4, 150 mM NaCl, 3 mM EDTA, 0.05% P20), then activated with EDC/NHS. His-DDB1 proteins were immobilized by amine coupling to a density of 11,000-13,000 resonance units (RUs) on flow cell FC2, whereas flow cell FC1 was used as reference. Both DDB1 immobilized and reference surfaces were deactivated with 1M ethanolamine.
All interaction experiments were performed at 25° C. […] Compound Solutions were injected individually in multi-cycle kinetic format without regeneration (flow rate […], association time 120 s, dissociation time 120 s). Sensorgrams from reference surfaces and blank injections were subtracted from the raw data (double-referencing) and the data was solvent-corrected prior to analysis. All data were fit to steady state affinity model using Biacore Evaluation Software and gave equivalent dissociation constants (KD).
Background: In SPR one partner is held on a chip, and binding of the other changes the refractive index at the surface.
As usually defined, the Kd is the concentration at which binding is half-saturated. `CC(=O)Nc1cc(NCCOCCOCCOCCNC(=O)CN2CCN(c3ccc(Nc4ncc5c(C)c(C(C)=O)c(=O)n(C6CCCC6)c5n4)nc3)CC2)ccc1C(=O)Nc1nc(C)c([N+](=O)[O-])s1` [D-46, 2-Acetamido-4-((1-(4-(6-((6-acetyl-8-cyclopentyl-5-methyl-7-oxo-7,8-dihydropyrido[2,3-d]pyrimidin-2-yl)amino)pyridin-3-yl)piperazin-1-yl)-2-oxo-6,9,12-trioxa-3-azatetradecan-14-yl)amino)-N-(4-methyl-5-nitrothiazol-2-yl)benzamide]: the Kd is less than 20 µM.

Consider `CC(=O)Nc1cc(NCCOCCOCCOCCN)ccc1C(=O)Nc1ncc([N+](=O)[O-])s1` [BL-9, 2-Acetamido-4-((2-(2-(2-(2-aminoethoxy)ethoxy)ethoxy)ethyl)amino)-N-(5-nitrothiazol-2-yl)benzamide], for which the Kd was less than 20 µM.

As for `NCCOCCOCCOCCC(=O)Nc1ccccc1C(=O)Nc1ncc([N+](=O)[O-])s1` [BL-3, 2-(3-(2-(2-(2-Aminoethoxy)ethoxy)ethoxy)propanamido)-N-(5-nitrothiazol-2-yl)benzamide], the Kd lay within 20 to 100 µM.

As for `CC(=O)Nc1cc(NCCOCCOCCOCCOCCNC(=O)CN2CCN(c3ccc(Nc4ncc5c(C)c(C(C)=O)c(=O)n(C6CCCC6)c5n4)nc3)CC2)ccc1C(=O)Nc1nc(C)c([N+](=O)[O-])s1` [D-47, 2-Acetamido-4-((1-(4-(6-((6-acetyl-8-cyclopentyl-5-methyl-7-oxo-7,8-dihydropyrido[2,3-d]pyrimidin-2-yl)amino)pyridin-3-yl)piperazin-1-yl)-2-oxo-6,9,12,15-tetraoxa-3-azaheptadecan-17-yl)amino)-N-(4-methyl-5-nitrothiazol-2-yl)benzamide], the Kd was less than 20 µM.

Staying with this assay, now noted: SPR, steady state affinity model, 25° C.; read-out: Binding (DDB1 binder activities, Kd).
As to `CC(=O)Oc1ccccc1C(=O)Nc1ncc([N+](=O)[O-])s1` [B-1, 2-((5-nitrothiazol-2-yl)carbamoyl)phenylacetate], the Kd lay within 20 to 100 µM.

With `CC(=O)Nc1ccccc1C(=O)Nc1ccc(Cl)cn1` [B-54, 2-Acetamido-N-(5-chloropyridin-2-yl)benzamide], the Kd lay within 20 to 100 µM.

On to `Cc1cnc(NC(=O)c2ccccc2C)s1` [B-175, 2-Methyl-N-(5-methylthiazol-2-yl)benzamide], for which the Kd is less than 20 µM.

For `CC(=O)Nc1ccccc1C(=O)Nc1ccc(-c2ccccc2)s1` [B-130, 2-Acetamido-N-(5-phenylthiophen-2-yl)benzamide], the Kd was greater than 100 µM.

For `CC(=O)Nc1ccccc1C(=O)Nc1nc(C)c([N+](=O)[O-])s1` [B-27, 2-Acetamido-N-(4-methyl-5-nitrothiazol-2-yl)benzamide], the Kd lay in the range of 20 to 100 µM.

Consider `CCCCNc1ccc(C(=O)Nc2ncc(C#N)s2)c(-c2ccccc2)c1` [B-119, 5-(Butylamino)-N-(5-cyanothiazol-2-yl)-[1,1′-biphenyl]-2-carboxamide], for which the Kd lay within 20 to 100 µM.

As to `O=C(Nc1ncc([N+](=O)[O-])s1)c1ccccc1` [B-3, N-(5-Nitrothiazol-2-yl)benzamide], the Kd lay in the range of 20 to 100 µM.

As for `CN(C)c1ccccc1C(=O)Nc1ncc([N+](=O)[O-])s1` [B-69, 2-(dimethylamino)-N-(5-nitrothiazol-2-yl)benzamide], the Kd is greater than 100 µM.

For the compound `CCCCNc1ccc(C(=O)Nc2nc(C3CC3)c([N+](=O)[O-])s2)c(-c2ccccc2)c1` [B-115, 5-(Butylamino)-N-(4-cyclopropyl-5-nitrothiazol-2-yl)-[1,1′-biphenyl]-2-carboxamide], the Kd was greater than 100 µM.

For `CC(=O)Nc1ccccc1C(=O)Nc1nc(C(C)C)c([N+](=O)[O-])s1` [B-33, 2-Acetamido-N-(4-isopropyl-5-nitrothiazol-2-yl)benzamide], the Kd is less than 20 µM.

For `O=C1CCCCCCN1c1ncc([N+](=O)[O-])s1` [B-101, 1-(5-Nitrothiazol-2-yl)azocan-2-one], the Kd lay within 20 to 100 µM.

Take `CCCCNc1ccc(C(=O)Nc2ncc([N+](=O)[O-])s2)c(C(C)C)c1` [B-109, 4-(Butylamino)-2-isopropyl-N-(5-nitrothiazol-2-yl)benzamide]: the Kd is 20 to 100 µM.

As to `CN(CCc1ccccc1)C1CCCN(C(=O)CCc2nc3ccccc3[nH]2)C1` (stereo not drawn) [B-139, 3-(1H-benzo[d]imidazol-2-yl)-1-(3-(methyl(phenethyl)amino)piperidin-1-yl)propan-1-one], the Kd is less than 20 µM.

With `CCCCNc1ccc(C(=O)Nc2ncc(Br)s2)c(-c2ccccc2)c1` [B-117, N-(5-Bromothiazol-2-yl)-5-(butylamino)-[1,1′-biphenyl]-2-carboxamide], the Kd lay in the range of 20 to 100 µM.

`CNS(=O)(=O)c1ccccc1C(=O)Nc1ncc([N+](=O)[O-])s1` [B-81, 2-(N-Methylsulfamoyl)-N-(5-nitrothiazol-2-yl)benzamide]: the Kd lay within 20 to 100 µM.

In the case of `CCCCNc1ccc(C(=O)Nc2nc(Cl)c([N+](=O)[O-])s2)c(-c2ccccc2)c1` [B-112, 5-(Butylamino)-N-(4-chloro-5-nitrothiazol-2-yl)-[1,1′-biphenyl]-2-carboxamide], the Kd was less than 20 µM.

With `CC(=O)Nc1ccccc1C(=O)Nc1ncc(S(C)(=O)=O)s1` [B-47, 2-Acetamido-N-(5-(methylsulfonyl)thiazol-2-yl)benzamide], the Kd was greater than 100 µM.

With `CC(=O)Nc1ccccc1C(=O)Nc1ncc(F)s1` [B-36, 2-Acetamido-N-(5-fluorothiazol-2-yl)benzamide], the Kd was 20 to 100 µM.

Take `CCNc1cccc(C)c1C(=O)Nc1ncc([N+](=O)[O-])s1` [B-169, 2-(Ethylamino)-6-methyl-N-(5-nitrothiazol-2-yl)benzamide]: the Kd lay within 20 to 100 µM.

As to `CNc1ccc(C(=O)Nc2ncc([N+](=O)[O-])s2)c(C)c1` [B-166, 2-Methyl-4-(methylamino)-N-(5-nitrothiazol-2-yl)benzamide], the Kd fell in the range of 20 to 100 µM.

Consider `Cc1ccc(C(=O)Nc2ncc([N+](=O)[O-])s2)c(C)c1` [B-172, 2,4-Dimethyl-N-(5-nitrothiazol-2-yl)benzamide], for which the dissociation constant Kd was 20 to 100 µM.

As to `Cc1cc(Br)ccc1C(=O)Nc1ncc([N+](=O)[O-])s1` [B-152, 4-Bromo-2-methyl-N-(5-nitrothiazol-2-yl)benzamide], the Kd is less than 20 µM.

Turning to `CC(Nc1nc(-c2ccco2)nc2c1CCNCC2)c1nnc(N)s1` (stereo not drawn) [B-138, 5-(1-((2-(furan-2-yl)-6,7,8,9-tetrahydro-5H-pyrimido[4,5-d]azepin-4-yl)amino)ethyl)-1,3,4-thiadiazol-2-amine], the Kd was 20 to 100 µM.

For the compound `CC(C)c1ccccc1C(=O)Nc1ncc([N+](=O)[O-])s1` [B-84, 2-Isopropyl-N-(5-nitrothiazol-2-yl)benzamide], the Kd is less than 20 µM.

Regarding `O=C(Nc1ncc([N+](=O)[O-])s1)c1ccccc1C(F)(F)F` [B-89, N-(5-Nitrothiazol-2-yl)-2-(trifluoromethyl)benzamide], the Kd is 20 to 100 µM.

With `CC(=O)Nc1ccccc1C(=O)Nc1ncccn1` [B-56, 2-acetamido-N-(pyrimidin-2-yl)benzamide], the Kd is greater than 100 µM.

For the compound `CCCCNc1cccc(OC(C)=O)c1C(=O)Nc1ncc([N+](=O)[O-])s1` [B-19, 3-(Butylamino)-2-((5-nitrothiazol-2-yl)carbamoyl)phenyl acetate], the Kd fell in the range of 20 to 100 µM.

Take `CC(=O)Nc1ccccc1C(=O)Nc1cccc([N+](=O)[O-])c1` [B-124, 2-Acetamido-N-(3-nitrophenyl)benzamide]: the Kd was less than 20 µM.

On to `Cc1cc(F)ccc1C(=O)Nc1ncc([N+](=O)[O-])s1` [B-171, 4-Fluoro-2-methyl-N-(5-nitrothiazol-2-yl)benzamide], for which the Kd was 20 to 100 µM.
